This is an account of results in patent US11591306B2, “Vitamin E-based amphipathic compound, and use thereof” (Industry-University Cooperation Foundation Hanyang …, priority 2017, dated 2023).

One series addresses T1, β2AR (Homo sapiens, UniProt P07550).
T1 construct: made in house; host or cells: Sf9 insect cells, baculovirus
The experiment in a line: β2AR stability, [3H]-dihydroalprenolol (DHA) ligand binding. The settings on record: CMC+0.2 wt %, 10 days at room temperature. As for the experimental part: A receptor was expressed in Sf9 insect cells infected with Baculovirus and solubilized in 1% DDM. The DDM-solubilized receptor was purified by alprenolol-sepharose in the presence of 0.01% cholesteryl succinate (CHS). β2AR purified by DDM was diluted with a buffer containing DDM or VEGs (VEG-1, VEG-2, VEG-3 and VEG-5) to reach the final concentration of CMC+0.2 wt %. β2AR solubilized in each compound was stored for 10 days at room temperature, and the ligand binding ability of the receptor was measured at regular intervals by incubating the receptor with 10 nM radioactive [^3H]-dihydroalprenolol (DHA) for 30 minutes at room temperature. The mixture was loaded into a G-50 column, and a supernatant was collected using a certain amount of binding buffer (supplemented with […] pH 7.5, 100 mM NaCl, 0.5 mg/ml BSA). In addition, a 15 ml scintillation fluid was added. Receptor-binding [^3H]-DHA was measured using a scintillation counter (Beckman).

For another series, the target named is T2, β2AR-Gs complex (Homo sapiens, UniProt P07550).
T2 construct: made in house
The experiment in a line: Negative stain EM analysis of β2AR-Gs complex. The settings on record: complex purified by VEG-3. How it is done: A β2AR-Gs protein complex was prepared for electron microscopy using a conventional negative staining protocol, and imaged at room temperature using a Tecnai T12 electron microscope operated at 120 kV according to a low-dose procedure. Images recorded at a magnification of 71,138× and a defocus value of approximately −1.1 urn on a Gatan US4000 CCD camera. All images were binned (2×2 pixels) to obtain a pixel size of 4.16 Å at a specimen level. Particles were manually […] using e2boxer (part of the EMAN2 software suite). 2D reference-free alignment and classification of particle projections were performed using ISAC. 23,035 projections of β2AR-Gs were subjected to ISAC producing 19 classes consistent in two-way matching and 5401 particle projections.

Series [1] addresses T3, MelBSt (melibiose permease) (Salmonella typhimurium, UniProt P30878).
T3 construct: made in house; host or cells: E. coli DW2 (ΔmelB and ΔlacZY), plasmid pK95ΔAHB/WT MelBSt/CH10
The experiment in a line: MelBSt extraction/solubilization and thermal stability, SDS-PAGE and Western blotting. As for the experimental part: Specifically, Salmonella typhimurium MelBSt (melibiose permease) having a 10 His tag at the C-terminus was expressed in E. coli DW2 cells (ΔmelB and ΔlacZY) using a pK95ΔAHB/WT MelBSt/CH10 plasmid. Cell growth and membrane preparation were carried out according to the methods disclosed in the paper written by A. S. Ethayathulla et al. (Nat. Commun. 2014, 5, 3009). A protein assay was performed using a Micro BCA kit (Thermo Scientific, Rockford, Ill.). MelBSt stability in VEGs or DDM was evaluated using the protocol disclosed in Nat. Methods 2010, 7, 1003-1008, written by P. S. Chae et al. A MelBSt-containing membrane sample (the final protein concentration was 10 mg/mL) was incubated in a solubilization buffer containing 1.5% (w/v) DDM or VEGs (50 mM sodium phosphate, pH 7.5, 200 mM NaCl, 10% glycerol, 20 mM melibiose) at two different temperatures (0 and 23° C.) for 90 minutes. To remove an insoluble material, ultracentrifugation was performed using a Beckman Optima™ MAX ultracentrifuge equipped with a TLA-100 rotor at 355,590 g and 4° C. for 30 minutes. […] The loaded samples were analyzed by SDS-15% PAGE, and then visualized by immunoblotting with a Penta-His-HRP antibody (Qiagen, Germantown, Md.).
To assess the thermal stability of MelBSt in various amphipathic molecules, MelBSt extracted with individual amphipathic molecules at 23° C. was subjected to additional thermal treatment at three different temperature (45, 55 and 65° C.) and ultracentrifugation, followed by SDS-15% PAGE and Western blotting. MelBSt was detected using a SuperSignalWest Pico chemiluminescent substrate by an ImageQuant LAS 4000 Biomolecular Imager (GE Healthcare Life Science).
A general note: In western blotting, separated proteins are transferred to a membrane and probed.

A short description of series [2]: Hydrodynamic radius of micelles by dynamic light scattering (DLS). It counts as physicochemical. The following applies: at 1.0 wt %. As for the experimental part:
A method of measuring the radius of a micelle is not particularly limited, but may be a method well known in the art, for example, dynamic light scattering (DLS).
To identify the properties of VEGs synthesized according to the synthetic methods of Preparation Examples 1 to […] molecular weights (M.W.) and critical micellar concentrations (CMCs) of VEGs, and the hydrodynamic radii (Rh) of formed micelles were measured.
Specifically, the CMCs were measured using hydrophobic fluorescence staining and diphenylhexatriene (DPH), and the hydrodynamic radii (Rh) of the micelles formed by each formulation were measured by dynamic light scattering (DLS).

Another series has as its target UapA (Emericella nidulans, UniProt Q07307, G411V). The experiment in a line: UapA extraction and thermal stability by fluorescence size exclusion chromatography (FSEC). Also on record: made in house. As for the experimental part:
The membrane containing UapA was resuspended in a pH 8.0 PBS buffer containing 10 mM imidazole, 150 mM NaCl and 10% glycerol, and a protein concentration was measured. The membrane was adjusted to a concentration of 1 mg/ml, and a 1 ml aliquot was incubated for 60 minutes with each of 1.0 mL of DDM, LMNG, VEG-3 and VEG-5, on ice under stirring. A 100 uL aliquot was obtained from each tube and subjected to ultracentrifugation for 10 minutes at 150,000 g, and then fluorescent SEC (FSEC) was performed on each sample. The remaining soluble fractions were incubated for 10 minutes at 45° C. The thermally-treated samples were applied to FSEC to monitor the integrity of a transporter. FSEC was performed using a Superose6 column (GE Healthcare) equilibrated with a buffer containing an appropriate preparation (DDM, LMNG, VEG-3 or VEG-5).
On the technique in general: SEC sorts molecules by how far they enter the pores of the column.

As to `Cc1c(C)c2c(c(C)c1OCC(=O)NC(CO[C@@H]1OC(CO)[C@@H](O[C@H]3OC(CO)[C@@H](O)[C@H](O)C3O)[C@H](O)C1O)CO[C@@H]1OC(CO)[C@@H](O[C@H]3OC(CO)[C@@H](O)[C@H](O)C3O)[C@H](O)C1O)CCC(C)(CCCC(C)CCCC(C)CCCC(C)C)O2` (stereo partly shown) [VEG-3], the “Long-term β2AR activity ([3H]-DHA binding)” value on β2AR is recorded as “consistently maintained during incubation for 10 days”. Moreover, on β2AR-Gs complex, the “Homogeneity of β2AR-Gs complex particles (negative stain EM)” value is listed as “highly homogeneous”. The MelBSt solubilization ability entry in series [1] (1.5 wt %, extracted at 23° C., then 65° C.) is “very excellent protein solubilization ability”. Also, the “MelBSt transporter solubilization ability in the thermal stability experiment” value in series [1] (elevated temperatures (overall)) was “higher transporter solubilization ability than DDM”. The “Rh (nm), hydrodynamic radius of micelles” value in series [2] is 4.8 ± 0.1 nm. The “UapA integrity after thermal treatment (FSEC)” value on UapA (45° C. for 10 minutes) is given as “maintained protein integrity”. For the same molecule, the “Ability to extract and solubilize UapA (FSEC)” value at UapA (before thermal treatment, 60 minutes on ice) was “LMNG and DDM were superior to VEG-3 and VEG-5”.
